Source: the supplement of paper PMC10307832

How the values were obtained:
Assay in all cases: relative viability (nuclei count vs DMSO), 5 days (fraction); higher = more cells survive
BAM7 + Navitoclax = compound: CCOC1=CC=CC=C1N=NC2=C(NN(C2=O)C3=NC(=CS3)C4=CC=CC=C4)C [BAM7] + CC1(C)CCC(c2ccc(Cl)cc2)=C(CN2CCN(c3ccc(C(=O)NS(=O)(=O)c4ccc(N[C@H](CCN5CCOCC5)CSc5ccccc5)c(S(=O)(=O)C(F)(F)F)c4)cc3)CC2)C1 [Navitoclax] (partner 0.5 µM)
How it was run: (§1)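 Lung cancer cell lines in 1536-well plates got either a single drug or a fixed anchor-drug dose together with five library-drug doses (not always all listed) in √10 steps, by pin tool, on the day after seeding. Nuclei were counted after 5 days, and relative viability is the treated-to-vehicle ratio of nuclei counts. Values are medians of duplicate plates.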

[1] = compound: CCn1c(-c2nonc2N)nc2c(C#CC(C)(C)O)ncc(OC[C@H]3CCCNC3)c21 + C[C@]1(O)C[C@@H](c2nc(-c3ccc4ccc(-c5ccccc5)nc4c3)c3c(N)nccn32)C1 [Linsitinib] (partner 1 µM)
How it was run: as §1

[2] = compound: CCn1c(-c2nonc2N)nc2c(C#CC(C)(C)O)ncc(OC[C@H]3CCCNC3)c21 + C[C@@H](Oc1cc(-c2cnn(C3CCNCC3)c2)cnc1N)c1c(Cl)ccc(F)c1Cl [Crizotinib] (partner 1 µM)
How it was run: as §1

BAM7 + Palbociclib = compound: CCOC1=CC=CC=C1N=NC2=C(NN(C2=O)C3=NC(=CS3)C4=CC=CC=C4)C [BAM7] + CC(=O)c1c(C)c2cnc(Nc3ccc(N4CCNCC4)cn3)nc2n(C2CCCC2)c1=O [Palbociclib] (partner 0.5 µM)
How it was run: as §1

| Cell Line | relative viability (BAM7 + Navitoclax; first compound 0.5 µM) | relative viability (BAM7 + Navitoclax; first compound 5 µM) | relative viability (BAM7 + Navitoclax; first compound 15.81 µM) | relative viability (BAM7 + Navitoclax; first compound 50 µM) | relative viability ([1]; first compound 0.01 µM) | relative viability ([1]; first compound 0.03162 µM) | relative viability ([1]; first compound 0.1 µM) | relative viability ([1]; first compound 0.3162 µM) | relative viability ([1]; first compound 1 µM) | relative viability ([2]; first compound 0.01 µM) | relative viability ([2]; first compound 0.03162 µM) | relative viability ([2]; first compound 0.1 µM) | relative viability ([2]; first compound 0.3162 µM) | relative viability ([2]; first compound 1 µM) | relative viability (BAM7 + Palbociclib; first compound 0.5 µM) | relative viability (BAM7 + Palbociclib; first compound 5 µM) | relative viability (BAM7 + Palbociclib; first compound 15.81 µM) | relative viability (BAM7 + Palbociclib; first compound 50 µM) |
| --- | --- | --- | --- | --- | --- | --- | --- | --- | --- | --- | --- | --- | --- | --- | --- | --- | --- | --- |
| EBC-1 | 0.403 | 0.389 | 0.382 | 0.423 | 0.947 | 0.776 | 0.837 | 0.732 | 0.632 | 0.161 | 0.194 | 0.223 | 0.159 | 0.197 | – | – | – | – |
| EKVX | 1.13 | 0.982 | 0.71 | 1.01 | 0.997 | 0.952 | 1.03 | 0.954 | 0.976 | 0.845 | 0.929 | 1.03 | 0.667 | 0.795 | 0.444 | 0.39 | 0.337 | 0.429 |
| EMC-BAC-2 | 1.2 | 1.23 | 1.08 | 1.17 | 0.82 | 0.852 | 0.837 | 0.828 | 0.837 | 0.773 | 0.846 | 0.696 | 0.738 | 0.759 | 0.512 | 0.519 | 0.524 | 0.563 |
| EPLC-272H | 1.32 | 1.21 | 1.15 | 1.17 | 1.24 | 1.21 | 1.03 | 1.17 | 1.39 | 0.962 | 1.09 | 0.892 | 0.802 | 0.904 | 0.349 | 0.315 | 0.327 | 0.351 |
| H3255 | 0.473 | 0.51 | 0.525 | 0.577 | 0.958 | 1.09 | 0.903 | 0.888 | 0.843 | 0.805 | 0.983 | 0.804 | 0.598 | 0.782 | 0.337 | 0.341 | 0.359 | 0.355 |
| HARA | 1.19 | 1.19 | 1.08 | 1.16 | 0.861 | 0.961 | 0.973 | 0.947 | 1.11 | 0.976 | 1.01 | 1.05 | 1.03 | 1.02 | 0.253 | 0.224 | 0.229 | 0.243 |
| HCC-15 | 0.751 | 0.768 | 0.683 | 0.707 | 0.798 | 0.932 | 0.856 | 0.816 | 0.828 | 0.764 | 0.868 | 0.758 | 0.748 | 0.726 | 0.621 | 0.694 | 0.614 | 0.686 |
| HCC-44 | 1.02 | 1.02 | 0.959 | 1.01 | 0.608 | 0.692 | 0.636 | 0.652 | 0.71 | 0.778 | 0.803 | 0.773 | 0.786 | 0.758 | 0.956 | 0.974 | 0.925 | 0.981 |
| HCC-78 | 0.901 | 0.69 | 0.658 | 0.796 | 0.502 | 0.496 | 0.5 | 0.424 | 0.546 | 0.344 | 0.353 | 0.324 | 0.297 | 0.322 | 0.487 | 0.383 | 0.49 | 0.45 |
